{"source": "patent US6043252A", "about": "“Carboline derivatives” (Icos Corporation, priority 1998, dated 2000)", "origin": "cited, not measured here", "key": {"[1]": {"system": "PDE6", "details": "cited from earlier work"}, "[2]": {"system": "MED", "details": "clinical; oral, sublingual, intraurethral, i.c. or topical; cited from earlier work"}}, "data": [{"compound": "CCCc1nn(C)c2c(=O)[nH]c(-c3cc(S(=O)(=O)N4CCN(C)CC4)ccc3OCC)nc12", "note": "[sildenafil]", "values": [{"measurement": "selectivity with respect to PDE6", "setting": "[1]", "result": "little selectivity with respect to PDE6"}, {"measurement": "efficacy in MED", "setting": "[2]", "result": "has shown efficacy in oral administration clinical trials for MED"}]}]}
